Experimental findings from ChEMBL document CHEMBL3611985, “Synthesis and structure-activity relationships of novel 9-oxime acylides with improved bactericidal activity” (2015) are described below.

Each structure is given as a SMILES string. Values after ≈ are worked out from the molar mass of the structure shown.

Holding throughout (format): functional
Test [1] relates to Streptococcus pneumoniae. The test can be described thus: Antimicrobial activity against erythromycin-susceptible Streptococcus pneumoniae ATCC 49619 incubated for 20 to 24 hrs by two-fold microbroth dilution method.
In a further test the test system is Streptococcus pyogenes. In words: Antimicrobial activity against Streptococcus pyogenes 01-968 expressing inducible ermA incubated for 20 to 24 hrs by two-fold microbroth dilution method. (In general: In broth dilution the organism is exposed to a series of concentrations in liquid medium.)
Test [2] has as its system Streptococcus pneumoniae. In words: Antimicrobial activity against Streptococcus pneumoniae 07P390 expressing constitutive ermB incubated for 20 to 24 hrs by two-fold microbroth dilution method.
For test [3], the system named is Staphylococcus aureus. The test can be described thus: Antimicrobial activity against methicillin-resistant Staphylococcus aureus PU20 expressing constitutive ermC incubated for 20 hrs by two-fold microbroth dilution method. To be noted: PU20, 20 h.
For test [4], the system named is Staphylococcus aureus. In words: Antimicrobial activity against methicillin-resistant Staphylococcus aureus PU32 expressing inducible ermA incubated for 20 hrs by two-fold microbroth dilution method. To be noted: PU32, 20 h.
In the next test the test system is Haemophilus influenzae. In words: Antimicrobial activity against azithromycin-susceptible and ampicillin-resistant Haemophilus influenzae 11P037 incubated for 20 to 24 hrs by two-fold microbroth dilution method.
Test [5] concerns Streptococcus pneumoniae. In words: Antimicrobial activity against penicillin-susceptible Streptococcus pneumoniae PU09 incubated for 20 to 24 hrs by two-fold microbroth dilution method.

With `CC[C@H]1OC(=O)[C@H](C)[C@@H](OC(=O)Cc2ccccn2)[C@H](C)[C@@H](O[C@@H]2O[C@H](C)C[C@H](N(C)C)[C@H]2O)[C@](C)(OC)C[C@@H](C)/C(=N\OCC#Cc2ccc([N+](=O)[O-])nc2)[C@H](C)[C@H]2OC(=O)O[C@@]21C`, the MIC in the test on Streptococcus pneumoniae [1] was 0.031 µg/mL (≈ 0.0341 µM); in the test on Streptococcus pyogenes it was 0.5 µg/mL (≈ 0.549 µM); against Streptococcus pneumoniae [2], 1 µg/mL (≈ 1.1 µM); against Staphylococcus aureus [3] it was above 64 µg/mL; against Staphylococcus aureus [4], 0.25 µg/mL (≈ 0.275 µM); against Haemophilus influenzae, above 64 µg/mL. The compound also displayed an MIC against Streptococcus pneumoniae [5] of 0.5 µg/mL (≈ 0.549 µM).
As for `CC[C@H]1OC(=O)[C@H](C)[C@@H](OC(=O)Cc2ccccn2)[C@H](C)[C@@H](O[C@@H]2O[C@H](C)C[C@H](N(C)C)[C@H]2O)[C@](C)(OC)C[C@@H](C)/C(=N\OCC#Cc2cccc(NC(=O)Cc3ccccn3)n2)[C@H](C)[C@H]2OC(=O)O[C@@]21C`, the MIC in the test with Streptococcus pneumoniae [1] was 0.125 µg/mL (≈ 0.125 µM); in the test with Streptococcus pyogenes, 4 µg/mL (≈ 4 µM); in the test with Streptococcus pneumoniae [2] it was 1 µg/mL (≈ 1 µM); against Staphylococcus aureus [3] it was above 64 µg/mL; against Staphylococcus aureus [4], 2 µg/mL (≈ 2 µM); in the test on Haemophilus influenzae, above 64 µg/mL. In addition, the MIC in the test on Streptococcus pneumoniae [5] was 2 µg/mL (≈ 2 µM).
Take `CC[C@H]1OC(=O)[C@H](C)[C@@H](OC(=O)Cc2ccccn2)[C@H](C)[C@@H](O[C@@H]2O[C@H](C)C[C@H](N(C)C)[C@H]2O)[C@](C)(OC)C[C@@H](C)/C(=N\OCC#Cc2cncc(NC(=O)Cc3ccccn3)c2)[C@H](C)[C@H]2OC(=O)O[C@@]21C`: the MIC was 0.031 µg/mL (≈ 0.031 µM) with Streptococcus pneumoniae [1]; 4 µg/mL (≈ 4 µM) with Streptococcus pyogenes; 1 µg/mL (≈ 1 µM) with Streptococcus pneumoniae [2]; above 64 µg/mL in the test on Staphylococcus aureus [3]; 2 µg/mL (≈ 2 µM) against Staphylococcus aureus [4]; above 64 µg/mL in the test with Haemophilus influenzae. Also, in the test on Streptococcus pneumoniae [5], the MIC came to 2 µg/mL (≈ 2 µM).
On to `CC[C@H]1OC(=O)[C@H](C)[C@@H](OC(=O)Cc2ccccn2)[C@H](C)[C@@H](O[C@@H]2O[C@H](C)C[C@H](N(C)C)[C@H]2O)[C@](C)(OC)C[C@@H](C)/C(=N\OCC#Cc2ccc(NC(=O)Cc3ccccn3)nc2)[C@H](C)[C@H]2OC(=O)O[C@@]21C`, for which the MIC was 0.062 µg/mL (≈ 0.0621 µM) in the test with Streptococcus pneumoniae [1]; 4 µg/mL (≈ 4 µM) against Streptococcus pyogenes; 1 µg/mL (≈ 1 µM) in the test with Streptococcus pneumoniae [2]; above 64 µg/mL in the test with Staphylococcus aureus [3]; 4 µg/mL (≈ 4 µM) against Staphylococcus aureus [4]; above 64 µg/mL in the test with Haemophilus influenzae. In the test with Streptococcus pneumoniae [5], this compound registered an MIC of 1 µg/mL (≈ 1 µM).
Take `CC[C@H]1OC(=O)[C@H](C)[C@@H](OC(=O)Cc2ccccn2)[C@H](C)[C@@H](O[C@@H]2O[C@H](C)C[C@H](N(C)C)[C@H]2O)[C@](C)(OC)C[C@@H](C)/C(=N\OCC#Cc2ccc(N)nc2)[C@H](C)[C@H]2OC(=O)O[C@@]21C`: the MIC is 0.008 µg/mL (≈ 0.00909 µM) in the test on Streptococcus pneumoniae [1]; 1 µg/mL (≈ 1.14 µM) in the test with Streptococcus pyogenes; 2 µg/mL (≈ 2.27 µM) in the test with Streptococcus pneumoniae [2]; above 64 µg/mL in the test on Staphylococcus aureus [3]; 0.5 µg/mL (≈ 0.568 µM) against Staphylococcus aureus [4]; 32 µg/mL (≈ 36.4 µM) in the test on Haemophilus influenzae. In the test on Streptococcus pneumoniae [5], this compound had an MIC of 0.5 µg/mL (≈ 0.568 µM).
For the compound `CC[C@H]1OC(=O)[C@H](C)[C@@H](OC(=O)Cc2ccccn2)[C@H](C)[C@@H](O[C@@H]2O[C@H](C)C[C@H](N(C)C)[C@H]2O)[C@](C)(OC)C[C@@H](C)/C(=N\OC/C=C/c2cccnc2N)[C@H](C)[C@H]2OC(=O)O[C@@]21C`, the MIC in the test with Streptococcus pneumoniae [1] is 0.062 µg/mL (≈ 0.0703 µM); with Streptococcus pyogenes, 2 µg/mL (≈ 2.27 µM); in the test with Streptococcus pneumoniae [2], 4 µg/mL (≈ 4.53 µM); with Staphylococcus aureus [3], above 64 µg/mL; with Staphylococcus aureus [4], 1 µg/mL (≈ 1.13 µM); against Haemophilus influenzae it was 32 µg/mL (≈ 36.3 µM). The compound also had an MIC in the test on Streptococcus pneumoniae [5] of 1 µg/mL (≈ 1.13 µM).
With `CC[C@H]1OC(=O)[C@H](C)[C@@H](OC(=O)Cc2ccccn2)[C@H](C)[C@@H](O[C@@H]2O[C@H](C)C[C@H](N(C)C)[C@H]2O)[C@](C)(OC)C[C@@H](C)/C(=N\OC/C=C/c2ccnc(NC(=O)Cc3ccccn3)c2)[C@H](C)[C@H]2OC(=O)O[C@@]21C`, the MIC against Streptococcus pneumoniae [1] is 0.125 µg/mL (≈ 0.125 µM); in the test with Streptococcus pyogenes, 4 µg/mL (≈ 4 µM); in the test with Streptococcus pneumoniae [2], 4 µg/mL (≈ 4 µM); in the test with Staphylococcus aureus [3], above 64 µg/mL; with Staphylococcus aureus [4], 4 µg/mL (≈ 4 µM); in the test on Haemophilus influenzae, above 64 µg/mL. The compound also registered an MIC in the test with Streptococcus pneumoniae [5] of 4 µg/mL (≈ 4 µM).
For the compound `CC[C@H]1OC(=O)[C@H](C)[C@@H](OC(=O)Cc2ccccn2)[C@H](C)[C@@H](O[C@@H]2O[C@H](C)C[C@H](N(C)C)[C@H]2O)[C@](C)(OC)C[C@@H](C)/C(=N\OC/C=C/c2cncc(NC(=O)Cc3ccccn3)c2)[C@H](C)[C@H]2OC(=O)O[C@@]21C`, the MIC is 0.062 µg/mL (≈ 0.0619 µM) with Streptococcus pneumoniae [1]; 4 µg/mL (≈ 4 µM) with Streptococcus pyogenes; 2 µg/mL (≈ 2 µM) against Streptococcus pneumoniae [2]; above 64 µg/mL with Staphylococcus aureus [3]; 2 µg/mL (≈ 2 µM) in the test with Staphylococcus aureus [4]; above 64 µg/mL in the test on Haemophilus influenzae. In the test with Streptococcus pneumoniae [5], this compound returned an MIC of 2 µg/mL (≈ 2 µM).
Take `CC[C@H]1OC(=O)[C@H](C)[C@@H](OC(=O)Cc2ccccn2)[C@H](C)[C@@H](O[C@@H]2O[C@H](C)C[C@H](N(C)C)[C@H]2O)[C@](C)(OC)C[C@@H](C)/C(=N\OC/C=C/c2ccc(NC(=O)Cc3ccccn3)nc2)[C@H](C)[C@H]2OC(=O)O[C@@]21C`: the MIC is 0.125 µg/mL (≈ 0.125 µM) in the test with Streptococcus pneumoniae [1]; 8 µg/mL (≈ 7.99 µM) in the test on Streptococcus pyogenes; 2 µg/mL (≈ 2 µM) in the test on Streptococcus pneumoniae [2]; above 64 µg/mL against Staphylococcus aureus [3]; 4 µg/mL (≈ 4 µM) in the test on Staphylococcus aureus [4]; above 64 µg/mL against Haemophilus influenzae. The compound further yielded an MIC in the test on Streptococcus pneumoniae [5] of 2 µg/mL (≈ 2 µM).
Regarding `CC[C@H]1OC(=O)[C@H](C)[C@@H](OC(=O)Cc2ccccn2)[C@H](C)[C@@H](O[C@@H]2O[C@H](C)C[C@H](N(C)C)[C@H]2O)[C@](C)(OC)C[C@@H](C)/C(=N\OC/C=C/c2ccc(N)nc2)[C@H](C)[C@H]2OC(=O)O[C@@]21C`, the MIC is 0.031 µg/mL (≈ 0.0351 µM) with Streptococcus pneumoniae [1]; 4 µg/mL (≈ 4.53 µM) against Streptococcus pyogenes; 1 µg/mL (≈ 1.13 µM) in the test on Streptococcus pneumoniae [2]; above 64 µg/mL in the test on Staphylococcus aureus [3]; 0.5 µg/mL (≈ 0.567 µM) in the test on Staphylococcus aureus [4]; 32 µg/mL (≈ 36.3 µM) against Haemophilus influenzae. In the test with Streptococcus pneumoniae [5], this compound returned an MIC of 1 µg/mL (≈ 1.13 µM).
`CC[C@H]1OC(=O)[C@H](C)[C@@H](OC(=O)Cc2ccccn2)[C@H](C)[C@@H](O[C@@H]2O[C@H](C)C[C@H](N(C)C)[C@H]2O)[C@](C)(OC)C[C@@H](C)/C(=N\OCCCc2cncc(NC(=O)Cc3ccccn3)c2)[C@H](C)[C@H]2OC(=O)O[C@@]21C`: the MIC in the test with Streptococcus pneumoniae [1] is 0.125 µg/mL (≈ 0.125 µM); with Streptococcus pyogenes, 8 µg/mL (≈ 7.97 µM); in the test with Streptococcus pneumoniae [2] it was 4 µg/mL (≈ 3.99 µM); against Staphylococcus aureus [3], above 64 µg/mL; against Staphylococcus aureus [4], 4 µg/mL (≈ 3.99 µM); against Haemophilus influenzae, above 64 µg/mL. This compound also had an MIC against Streptococcus pneumoniae [5] of 4 µg/mL (≈ 3.99 µM).
In the case of `CC[C@H]1OC(=O)[C@H](C)[C@@H](OC(=O)Cc2ccccn2)[C@H](C)[C@@H](O[C@@H]2O[C@H](C)C[C@H](N(C)C)[C@H]2O)[C@](C)(OC)C[C@@H](C)/C(=N\OCCCc2ccc(NC(=O)Cc3ccccn3)nc2)[C@H](C)[C@H]2OC(=O)O[C@@]21C`, the MIC is 0.125 µg/mL (≈ 0.125 µM) with Streptococcus pneumoniae [1]; 8 µg/mL (≈ 7.97 µM) in the test with Streptococcus pyogenes; 2 µg/mL (≈ 1.99 µM) against Streptococcus pneumoniae [2]; above 64 µg/mL in the test with Staphylococcus aureus [3]; 2 µg/mL (≈ 1.99 µM) with Staphylococcus aureus [4]; above 64 µg/mL in the test on Haemophilus influenzae. This compound also showed an MIC with Streptococcus pneumoniae [5] of 2 µg/mL (≈ 1.99 µM).
